According to patent publication US9359367B2, “Tetrahydroquinazolinone derivatives as PARP inhibitors” (Lupin Limited, priority 2012, dated 2016):

Target: T1, PARP1 (Homo sapiens, UniProt P09874)
T1 construct: purchased BPS Bioscience
Assay: PARP1 Biochemical Assay (BPS Bioscience kit, chemiluminescence)
Settings: histone-coated plate, biotinilated NAD+, 25° C. for 60 min, luminescence, read-out: PARP 1 inhibition IC50
Procedure: The assay was performed using BPS Bioscience kit. The 96-well strip plate was coated with 50 μl of histone mixture and incubated at 4° C. overnight. Next day the wells were blocked by adding 100 μl of blocking buffer. The plate was washed and 25 μl of appropriate concentration of PARP1 (25-75 ng/well) was added in all the Test and Positive control wells. In Negative control wells enzyme was replaced with 25 μl of water. To it 5 μl each of 10×PARP assay buffer and activated DNA was added in all the wells (Test, Positive and Negative control wells). 10× concentration of test compounds were prepared and 5 μl test compounds were added respective wells. Reaction volume was made up to 45 μl by adding water to all the wells. Finally, 5 μl of 10×PARP assay mixture containing biotinilated NAD^+ was added in each well and the plate was incubated at ambient temperature (25° C.) for 60 min. After washing the plate 50 μl of Streptavidin-HRP was added in each well and incubated the plate at RT for 30 min. The plate was washed and the luminescence was read in PHERAStar plate reader after adding 100 μl of chemiluminescent substrate.
PARP inhibition was calculated using the following formula: % PARP inhibition=100−[(RLU test compound treated sample−RLU negative control)/(RLU Positive control−RLU negative control)×100]
IC50 values were calculated by plotting % inhibition against the respective concentrations of test compounds using GraphPad Prism 5.

T1 sequence (P09874 whole entry): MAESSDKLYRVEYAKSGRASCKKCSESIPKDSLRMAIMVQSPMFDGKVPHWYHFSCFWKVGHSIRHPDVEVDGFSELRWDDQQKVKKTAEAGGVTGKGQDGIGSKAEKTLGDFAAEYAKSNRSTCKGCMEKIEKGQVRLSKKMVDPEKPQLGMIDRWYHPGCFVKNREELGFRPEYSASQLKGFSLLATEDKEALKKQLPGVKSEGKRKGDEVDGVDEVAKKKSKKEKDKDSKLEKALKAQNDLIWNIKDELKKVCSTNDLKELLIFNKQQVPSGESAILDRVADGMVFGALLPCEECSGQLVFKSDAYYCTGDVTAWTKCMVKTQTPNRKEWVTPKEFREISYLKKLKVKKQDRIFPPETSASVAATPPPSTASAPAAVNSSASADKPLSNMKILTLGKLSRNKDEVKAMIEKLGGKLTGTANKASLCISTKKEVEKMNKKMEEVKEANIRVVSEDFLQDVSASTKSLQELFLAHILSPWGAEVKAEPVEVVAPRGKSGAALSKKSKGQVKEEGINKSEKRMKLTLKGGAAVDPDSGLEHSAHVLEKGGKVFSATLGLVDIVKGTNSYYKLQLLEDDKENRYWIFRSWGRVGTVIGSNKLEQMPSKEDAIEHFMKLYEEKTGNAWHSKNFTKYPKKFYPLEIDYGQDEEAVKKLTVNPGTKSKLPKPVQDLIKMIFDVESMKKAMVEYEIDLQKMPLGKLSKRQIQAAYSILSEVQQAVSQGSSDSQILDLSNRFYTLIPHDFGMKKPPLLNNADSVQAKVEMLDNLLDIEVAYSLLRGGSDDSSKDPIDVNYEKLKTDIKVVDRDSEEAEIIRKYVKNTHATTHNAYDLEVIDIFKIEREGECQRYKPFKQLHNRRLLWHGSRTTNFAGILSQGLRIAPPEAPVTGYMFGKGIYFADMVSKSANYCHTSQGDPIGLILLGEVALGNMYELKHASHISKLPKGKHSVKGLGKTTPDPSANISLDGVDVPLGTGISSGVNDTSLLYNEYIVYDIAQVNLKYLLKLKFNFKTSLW

O=c1[nH]c(CCCN2CCN(c3ccc(F)cc3)CC2)nc2c1CCCC21CC1 [Compound 1, 2′-(3-(4-(4-fluorophenyl)piperazin-1-yl)propyl)-6′,7′-dihydro-3′H-spiro[cyclopropane-1,8′-quinazolin]-4′(5′H)-one] and O=c1[nH]c(CCCN2CCN(c3ccc(Cl)cc3)CC2)nc2c1CCCC21CC1 [Compound 2, 2′-(3-(4-(4-chlorophenyl)piperazin-1-yl)propyl)-6′,7′-dihydro-3′H-spiro[cyclopropane-1,8′-quinazolin]-4′(5′H)-one] fall in the same range of IC50: 1 to 500 nM for the first, 1 to 500 nM for the second.

Compared with O=c1[nH]c(CCCN2CC=C(c3ccccc3)CC2)nc2c1CCCC21CC1 [Compound 3, 2′-(3-(4-phenyl-5,6-dihydropyridin-1(2H)-yl)propyl)-6′,7′-dihydro-3′H-spiro[cyclopropane-1,8′-quinazolin]-4′(5′H)-one], O=c1[nH]c(CCCN2CC=C(c3ccccc3)CC2)nc2c1CCC1(CC1)C2 [Compound 17, 2′-(3-(4-phenyl-5,6-dihydropyridin-1(2H)-yl)propyl)-5′,6′-dihydro-3′H-spiro[cyclopropane-1,7′-quinazolin]-4′(8′H)-one] is higher in IC50: 1 to 500 nM for the first, 5000 to 500000 nM for the second. The first is the more potent here.

First: O=c1[nH]c(CCCN2CCN(c3ccc(F)cc3)CC2)nc2c1CC1(CC2)CC1 [Compound 5, 2′-(3-(4-(4-fluorophenyl)piperazin-1-yl)propyl)-7′,8′-dihydro-3′H-spiro[cyclopropane-1,6′-quinazolin]-4′(5′H)-one]
Second: O=c1[nH]c(CCCN2CCN(c3ccc(F)cc3)CC2)nc2c1CCC1(CC1)C2 [Compound 15, 2′-(3-(4-(4-fluorophenyl)piperazin-1-yl)propyl)-5′,6′-dihydro-3′H-spiro[cyclopropane-1,7′-quinazolin]-4′(8′H)-one]
The IC50 of the first is lower: 1 to 500 nM for the first, 5000 to 500000 nM for the second.

O=c1[nH]c(CCCN2CCN(c3ccc(Cl)cc3)CC2)nc2c1CC1(CC2)CC1 [Compound 6, 2′-(3-(4-(4-chlorophenyl)piperazin-1-yl)propyl)-7′,8′-dihydro-3′H-spiro[cyclopropane-1,6′-quinazolin]-4′(5′H)-one] and Cc1ccc(N2CCN(CCCc3nc4c(c(=O)[nH]3)CC3(CC4)CC3)CC2)cc1 [Compound 32, 2′-(3-(4-(p-tolyl)piperazin-1-yl)propyl)-7′,8′-dihydro-3′H-spiro[cyclopropane-1,6′-quinazolin]-4′(5′H)-one] fall in the same range of IC50: 1 to 500 nM for the first, 1 to 500 nM for the second.

Compared with O=c1[nH]c(CCCN2C3CCC2CN(c2ccc(F)cc2)C3)nc2c1CC1(CC2)CC1 [Compound 7, 2′-(3-(3-(4-fluorophenyl)-3,8-diazabicyclo[3.2.1]octan-8-yl)propyl)-7′,8′-dihydro-3′H-spiro[cyclopropane-1,6′-quinazolin]-4′(5′H)-one], O=c1[nH]c(CCCN2CC3CCC(C2)N3c2ccc(F)cc2)nc2c1CC1(CC2)CC1 [Compound 8, 2′-(3-(8-(4-fluorophenyl)-3,8-diazabicyclo[3.2.1]octan-3-yl)propyl)-7′,8′-dihydro-3′H-spiro[cyclopropane-1,6′-quinazolin]-4′(5′H)-one] is higher in IC50: 1 to 500 nM for the first, 5000 to 500000 nM for the second. The first is the more potent here.

Compared with O=c1[nH]c(CCCN2CC=C(c3ccc(F)cc3)CC2)nc2c1CC1(CC2)CC1 [Compound 9, 2′-(3-(4-(4-fluorophenyl)-5,6-dihydropyridin-1(2H)-yl)propyl)-7′,8′-dihydro-3′H-spiro[cyclopropane-1,6′-quinazolin]-4′(5′H)-one], O=c1[nH]c(CCCN2CC=C(c3ccc(F)cc3)CC2)nc2c1CCC1(CC1)C2 [Compound 16, 2′-(3-(4-(4-fluorophenyl)-5,6-dihydropyridin-1(2H)-yl)propyl)-5′,6′-dihydro-3′H-spiro[cyclopropane-1,7′-quinazolin]-4′(8′H)-one] is higher in IC50: 1 to 500 nM for the first, 5000 to 500000 nM for the second.

First: O=c1[nH]c(CCCN2CCN(c3ccc(Cl)c(Cl)c3)CC2)nc2c1CC1(CC2)CC1 [Compound 10, 2′-(3-(4-(3,4-dichlorophenyl)piperazin-1-yl)propyl)-7′,8′-dihydro-3′H-spiro[cyclopropane-1,6′-quinazolin]-4′(5′H)-one]
Second: O=c1[nH]c(CCCN2CCN(c3cccc(Cl)c3)CC2)nc2c1CC1(CC2)CC1 [Compound 18, 2′-(3-(4-(3-chlorophenyl)piperazin-1-yl)propyl)-7′,8′-dihydro-3′H-spiro[cyclopropane-1,6′-quinazolin]-4′(5′H)-one]
The IC50 of the first is lower: 501 to 5000 nM for the first, 5000 to 500000 nM for the second.

Compared with O=c1[nH]c(CCCN2CC3CC2CN3c2ccc(F)cc2)nc2c1CC1(CC2)CC1 (stereo not drawn) [Compound 11, 2′-(3-(5-(4-fluorophenyl)-2,5-diazabicyclo[2.2.1]heptan-2-yl)propyl)-7′,8′-dihydro-3′H-spiro[cyclopropane-1,6′-quinazolin]-4′(5′H)-one], CC1CN(c2ccc(F)cc2)CCN1CCCc1nc2c(c(=O)[nH]1)CC1(CC2)CC1 (stereo not drawn) [Compound 27, 2′-(3-(4-(4-fluorophenyl)-2-methylpiperazin-1-yl)propyl)-7′,8′-dihydro-3′H-spiro[cyclopropane-1,6′-quinazolin]-4′(5′H)-one] is lower in IC50: 501 to 5000 nM for the first, 1 to 500 nM for the second. The second is the more potent here.

First: O=c1[nH]c(CCCN2CCN(c3ccccc3)CC2)nc2c1CC1(CC2)CC1 [Compound 13, 2′-(3-(4-phenylpiperazin-1-yl)propyl)-7′,8′-dihydro-3′H-spiro[cyclopropane-1,6′-quinazolin]-4′(5′H)-one]
Second: O=c1[nH]c(CCCN2CCN(c3ccccc3Cl)CC2)nc2c1CC1(CC2)CC1 [Compound 14, 2′-(3-(4-(2-chlorophenyl)piperazin-1-yl)propyl)-7′,8′-dihydro-3′H-spiro[cyclopropane-1,6′-quinazolin]-4′(5′H)-one]
The IC50 of the first is higher: 501 to 5000 nM for the first, 1 to 500 nM for the second.

O=c1[nH]c(CCCN2CCC(c3ccccc3)CC2)nc2c1CC1(CC2)CC1 [Compound 19, 2′-(3-(4-phenylpiperidin-1-yl)propyl)-7′,8′-dihydro-3′H-spiro[cyclopropane-1,6′-quinazolin]-4′(5′H)-one] and O=c1[nH]c(CCCN2CCN(c3ccccc3F)CC2)nc2c1CC1(CC2)CC1 [Compound 28, 2′-(3-(4-(2-fluorophenyl)piperazin-1-yl)propyl)-7′,8′-dihydro-3′H-spiro[cyclopropane-1,6′-quinazolin]-4′(5′H)-one] fall in the same range of IC50: 1 to 500 nM for the first, 1 to 500 nM for the second.

First: O=c1[nH]c(CCCN2CCN(c3ccccn3)CC2)nc2c1CC1(CC2)CC1 [Compound 20, 2′-(3-(4-(pyridin-2-yl)piperazin-1-yl)propyl)-7′,8′-dihydro-3′H-spiro[cyclopropane-1,6′-quinazolin]-4′(5′H)-one]
Second: O=c1[nH]c(CCCN2CCN(c3ccncc3)CC2)nc2c1CC1(CC2)CC1 [Compound 29, 2′-(3-(4-(pyridin-4-yl)piperazin-1-yl)propyl)-7′,8′-dihydro-3′H-spiro[cyclopropane-1,6′-quinazolin]-4′(5′H)-one]
The IC50 of the first is higher: 5000 to 500000 nM for the first, 1 to 500 nM for the second. The second is the more potent here.

CC(CCc1nc2c(c(=O)[nH]1)CC1(CC2)CC1)N1CCN(c2ccc(F)cc2)CC1 (stereo not drawn) [Compound 21, 2′-(3-(4-(4-fluorophenyl)piperazin-1-yl)butyl)-7′,8′-dihydro-3′H-spiro[cyclopropane-1,6′-quinazolin]-4′(5′H)-one] and CC(C)(CCc1nc2c(c(=O)[nH]1)CC1(CC2)CC1)N1CCN(c2ccc(F)cc2)CC1 [Compound 30, 2′-(3-(4-(4-fluorophenyl)piperazin-1-yl)-3-methylbutyl)-7′,8′-dihydro-3′H-spiro[cyclopropane-1,6′-quinazolin]-4′(5′H)-one] fall in the same range of IC50: 1 to 500 nM for the first, 1 to 500 nM for the second.

O=c1[nH]c(CCCN2CCN(c3cccc(C(F)(F)F)c3)CC2)nc2c1CC1(CC2)CC1 [Compound 22, 2′-(3-(4-(3-(trifluoromethyl)phenyl)piperazin-1-yl)propyl)-7′,8′-dihydro-3′H-spiro[cyclopropane-1,6′-quinazolin]-4′(5′H)-one] and Cc1cccc(N2CCN(CCCc3nc4c(c(=O)[nH]3)CC3(CC4)CC3)CC2)c1 [Compound 23, 2′-(3-(4-(m-tolyl)piperazin-1-yl)propyl)-7′,8′-dihydro-3′H-spiro[cyclopropane-1,6′-quinazolin]-4′(5′H)-one] fall in the same range of IC50: 5000 to 500000 nM for the first, 5000 to 500000 nM for the second.

First: O=c1[nH]c(CCCN2CCN(c3ccc(F)cc3)CC2)nc2c1CC1CC1C2 (stereo not drawn) [Compound 24, 2-(3-(4-(4-fluorophenyl)piperazin-1-yl)propyl)-5a,6,6a,7-tetrahydro-3H-cyclopropa[g]quinazolin-4(5H)-one]
Second: O=c1[nH]c(CCCN2CCN(c3ccccc3)CC2)nc2c1CC1CC1C2 (stereo not drawn) [Compound 25, 2-(3-(4-phenylpiperazin-1-yl)propyl)-5a,6,6a,7-tetrahydro-3H-cyclopropa[g]quinazolin-4(5H)-one]
The IC50 of the first is lower: 1 to 500 nM for the first, 501 to 5000 nM for the second. The first is the more potent here.

CC1CN(c2ccc(F)cc2)CC(C)N1CCCc1nc2c(c(=O)[nH]1)CC1(CC2)CC1 (stereo not drawn) [Compound 26, 2′-(3-(4-(4-fluorophenyl)-2,6-dimethylpiperazin-1-yl)propyl)-7′,8′-dihydro-3′H-spiro[cyclopropane-1,6′-quinazolin]-4′(5′H)-one] and CC(C)(/C=C/c1nc2c(c(=O)[nH]1)CC1(CC2)CC1)N1CCN(c2ccc(F)cc2)CC1 [Compound 31, (E)-2′-(3-(4-(4-fluorophenyl)piperazin-1-yl)-3-methylbut-1-en-1-yl)-7′,8′-dihydro-3′H-spiro[cyclopropane-1,6′-quinazolin]-4′(5′H)-one] fall in the same range of IC50: 5000 to 500000 nM for the first, 5000 to 500000 nM for the second.
